The values below come from publication PMC8306828 (International Journal of Molecular Sciences, 2021).

As a reminder, the IC50 is the concentration that gives 50% inhibition.

The test system of series [1] is A2780cis cells. On the set-up: method as in doi:10.1016/j.ica.2016.11.021. The note with it: MTT, 72 h, reposted from previous paper; cited from earlier work.
Series [2] has as its system A2780cis cells. Put plainly: MTT cellular viability assay, A2780cis. To be noted: for RF (IC50 A2780cis/IC50 A2780): Resistance factor defined as IC50(resistant)/IC50(sensitive); for IC50: A2780cis, MTT, 72 h. It counts as cell-based, human. As for the experimental part: (§1) Cell lines A2780 (human ovarian carcinoma, ECACC cat. No. 93112519), A2780cis (subline resistant to cisplatin, ECACC cat. […] All cell lines were maintained in a humidified incubator, at 37 °C and 5% CO2. The cell lines A2780 and A2780cis were grown as monolayers, and cultures were detached with trypsin and renewed every 3–4 days. Toledo and Toledo-cis were grown in suspension; the cultures were renewed every 3–4 days. The Toledo cell line was kindly provided by Prof. […] The cancer cells were seeded in 24-well plates, with 1 mL of cell suspension per well, in the following densities: A2780—10^4 cells/mL; […] Lymphocytes were seeded in 48-well plates, 0.5 mL of cell suspension per well, at −2 × 10^5 cells/mL. The cultures were left overnight to adapt. The next day, the tested compounds were added, pre-dissolved in DMF, and then in a complete culture medium, at concentrations two-fold higher than the final ones. The resulting solutions were added to cell cultures to obtain the demanded concentration. Stock solutions of the compounds were freshly made before every experiment. The final concentration of the solvents in culture medium was 0.2% v/v. […] Then the culture medium was removed, and the purple formazan crystals were dissolved in DMSO. The absorbance was measured at 540 nm on a Spectrostar Nano spectrophotometer with a microplate reader (BMG Labtech, Ortenberg, Germany). The experiments were performed at least in triplicate. The results were transformed to relative values, as the percentage of the solvent control (assumed as 100%) to subtract any toxic effect of DMF.
Background: Tetrazolium dyes change colour on reduction, which living cells bring about.

Series [3] concerns Toledo cells. Also on record: method as in doi:10.1016/j.ica.2016.11.021. To be noted: cited from earlier work.
Series [4] relates to Toledo-cis cells. Put plainly: MTT cellular viability assay, Toledo-cis. It counts as cell-based, human. The note with it: for RF (IC50 Toledo-cis/IC50 Toledo): Resistance factor defined as IC50(resistant)/IC50(sensitive); for IC50: Toledo-cis, MTT, 72 h. As for the experimental part: as §1
Series [5] has as its system Toledo-cis cells. Also on record: method as in doi:10.1016/j.ica.2016.11.021. To be noted: MTT, 72 h, reposted from previous paper; cited from earlier work.
Series [6] relates to A2780 cells. Also on record: method as in doi:10.1016/j.ica.2016.11.021. The note with it: cited from earlier work.
Series [7] has as its system human lymphocytes. Put plainly: MTT cellular viability assay, normal lymphocytes. It counts as cell-based. The note with it: for times less toxic for normal lymphocytes in comparison to cisplatin: relative to cisplatin; for IC50: Lymphocytes, MTT, 72 h. As to the method:
The buffy coat fraction of peripheral blood from healthy donors was purchased from the Regional Blood Bank in Lodz, Poland. Mononuclear blood cells were isolated using Lympho-Sep tubes (Biological Industries, Israel). Lymphocytes were cultured in RPMI-1640 medium (Biological Industries, Israel) supplemented with 10% heat-inactivated fetal bovine serum, phytohemaglutinin M solution (PHA-M, Biological Industries), 5 mM Hepes, and 50 µg/mL gentamycin. The cancer cells were seeded in 24-well plates, with 1 mL of cell suspension per well, in the following densities: A2780—10^4 cells/mL; […] Lymphocytes were seeded in 48-well plates, 0.5 mL of cell suspension per well, at −2 × 10^5 cells/mL. The cultures were left overnight to adapt. The next day, the tested compounds were added, pre-dissolved in DMF, and then in a complete culture medium, at concentrations two-fold higher than the final ones. The resulting solutions were added to cell cultures to obtain the demanded concentration. Stock solutions of the compounds were freshly made before every experiment. The final concentration of the solvents in culture medium was 0.2% v/v. […] Then the culture medium was removed, and the purple formazan crystals were dissolved in DMSO. The absorbance was measured at 540 nm on a Spectrostar Nano spectrophotometer with a microplate reader (BMG Labtech, Ortenberg, Germany). The experiments were performed at least in triplicate. The results were transformed to relative values, as the percentage of the solvent control (assumed as 100%) to subtract any toxic effect of DMF.

The subject of series [8] is human lymphocytes. Also on record: method as in doi:10.1016/j.ica.2016.11.021. The note with it: MTT, 72 h, reposted from previous paper; cited from earlier work.
Series [9] has as its system A2780 and A2780cis cells. As to the kind of experiment: Annexin V apoptosis assay (flow cytometry). Type of series: cell-based, human. The note with it: 2 h and 4 h incubation, compared to untreated cells. As for the experimental part:
The apoptotic cells were identified by flow cytometry using the Annexin-V/FITC (BDBiosciences, San Diego, CA, USA) assay according to the manufacturer’s instructions. […] PI only stains the nuclei of damaged cells with permeable plasma membranes. Briefly, the cells were incubated with tested compounds for 2 and 4 h. After incubation, the cells were washed twice with cold PBS and then resuspended in 100 μL of binding buffer, containing 2 μL of FITC conjugated annexin-V and 10 μg mL^−1 of PI (Becton-Dickinson, San Jose, CA, USA). Then, the preparations were incubated at room temperature, protected from light, for 15 min. Fluorescence was measured immediately after staining by flow cytometry using FL1 (green, annexin-V) and FL3 (red, PI) standard fluorescent filters.
(In general: A flow cytometer gives signals particle by particle.)

Series [10] relates to A2780 and A2780cis cells. Put plainly: Mitochondrial potential loss measurement (MitoTracker Red, flow cytometry). The note with it: 2 h and 4 h incubation. Type of series: cell-based, human. As for the experimental part:
The loss of mitochondrial transmembrane potential (ΔΨm) occurs early during apoptosis and is often considered as a marker of apoptosis activated by the mitochondrial pathway. MitoTracker Red (Invitrogen, Waltham, MA, USA) dye was used as a probe for ΔΨm, which accumulates in the active mitochondria of living cells: 50 nM, 20 min incubation, at RT. The reduction of Δ Ψm was detected by flow cytometry as a decrease in red fluorescence of the dye in treated cells as compared to untreated cells.

The subject of series [11] is A2780 cells. As to the kind of experiment: MTT cellular viability assay, A2780. Type of series: cell-based, human. The note with it: 72 h. As for the experimental part:
(§2) Cell lines A2780 (human ovarian carcinoma, ECACC cat. No. 93112519), A2780cis (subline resistant to cisplatin, ECACC cat. No. 93112517), Toledo (human diffuse large cell lymphoma, ATCC CRL-2631TM), and Toledo-cis (cisplatin-resistant subline obtained from Toledo in our laboratory) were cultured in RPMI-1640 medium (Biological Industries, Kibbutz Beit-Haemek, Israel) supplemented with 10% heat-inactivated fetal bovine serum, 5 mM Hepes, and 50 µg/mL gentamycin. All cell lines were maintained in a humidified incubator, at 37 °C and 5% CO2. The cell lines A2780 and A2780cis were grown as monolayers, and cultures were detached with trypsin and renewed every 3–4 days. Toledo and Toledo-cis were grown in suspension; the cultures were renewed every 3–4 days. The Toledo cell line was kindly provided by Prof. Piotr Smolewski from the Department of Experimental Hematology, Medical University of Lodz, ul Ciołkowskiego 2, 93–510 Łódź, Poland, on the conditions of collaboration. […]
(§3) The cancer cells were seeded in 24-well plates, with 1 mL of cell suspension per well, in the following densities: A2780—10^4 cells/mL; A2780cis—1.5 × 10^4 cells/mL; and Toledo and Toledo-cis—5 × 10^4 cells/mL. […] The absorbance was measured at 540 nm on a Spectrostar Nano spectrophotometer with a microplate reader (BMG Labtech, Ortenberg, Germany). […]

Series [12] concerns Toledo cells. As to the kind of experiment: MTT cellular viability assay, Toledo. It counts as cell-based, human. The note with it: 72 h. As for the experimental part: as §2, §3
Series [13] deals with panel of cancer cells and human lymphocytes. As to the kind of experiment: MTT cellular viability assay, all tested cell lines. The note with it: range over all tested cell lines, 72 h, read-out: IC50 values towards all tested cell lines. It counts as cell-based. As to the method: as §2, §3
[14] abbreviates: MTT, 72 h, reposted from previous paper.
Setting [15] is: A2780, MTT, 72 h, reposted from previous paper.

The structures appear in SMILES notation. Like-named read-outs stand apart in the source and are kept apart here. Where only a bound is given, the exact number is not on record here.

Take `COC1(c2ccccc2)Oc2ccccc2C(=O)C1=N.COC1(c2ccccc2)Oc2ccccc2C(=O)C1=N.[Cl][Ru][Cl]` (stereo not drawn) [134 (2), cis-dichlorobis(3-imino-2-methoxyflavanone)ruthenium(II)]: the concentration for half-maximal inhibition (IC50) was 4.6 ± 0.2 µM in the series on A2780cis cells [1]; 0.5 ± 0.1 µM with Toledo cells [3] (setting [14]); 2.9 ± 0.2 µM with Toledo-cis cells [5]; 2.5 ± 0.2 µM with A2780 cells [6] (setting [15]); 3.4 ± 0.3 µM with human lymphocytes [8]. In addition, in the series with A2780cis cells [2], the “RF (IC50 A2780cis/IC50 A2780)” value came to 1.8. In addition, in the series on Toledo-cis cells [4], the “RF (IC50 Toledo-cis/IC50 Toledo)” value worked out at 5.8. Further, the “times less toxic for normal lymphocytes in comparison to cisplatin” value (“times less toxic for normal lymphocytes” below) in the series with human lymphocytes [7] is 3 times.

Regarding `CCOC1(c2ccccc2)Oc2ccccc2C(=O)C1=N.CCOC1(c2ccccc2)Oc2ccccc2C(=O)C1=N.[Cl][Ru][Cl]` (stereo not drawn) [138 (3), cis-dichlorobis(3-imino-2-ethoxyflavanone)ruthenium(II)], the IC50 in the series with A2780cis cells [1] was 1.5 ± 0.4 µM; in the series on Toledo cells [3] (setting [14]), 0.6 ± 0.04 µM; in the series on Toledo-cis cells [5], 2.8 ± 0.1 µM; with A2780 cells [6] (setting [15]) it was 1.8 ± 0.1 µM; with human lymphocytes [8], 1.6 ± 0.1 µM. Further, the “RF (IC50 A2780cis/IC50 A2780)” value in the series on A2780cis cells [2] stood at 0.8. Moreover, the “RF (IC50 Toledo-cis/IC50 Toledo)” value with Toledo-cis cells [4] is reported as 4.6. Besides, in the series with human lymphocytes [7], the “times less toxic for normal lymphocytes” value was determined as 7 times.

For the compound `N.N.[Cl][Pt][Cl]` [Cisplatin (1), cis-diamminedichloroplatinum (II), reference compound], the IC50 in the series with A2780cis cells [1] was 16.8 ± 1.5 µM; in the series on Toledo cells [3] (setting [14]), 0.5 ± 0.07 µM; in the series with Toledo cells [3], below 1 µM; in the series with Toledo-cis cells [5] it was 8.3 ± 0.6 µM; with A2780 cells [6] (setting [15]) it was 0.2 ± 0.1 µM; in the series with A2780 cells [6] (A2780, text value), below 1 µM. For the same compound, the IC50 with human lymphocytes [8] was 0.2 ± 0.1 µM. For the same compound, the “RF (IC50 A2780cis/IC50 A2780)” value in the series on A2780cis cells [2] was found to be 84. The “percentage of Ann-V positive cells” value in the series with A2780 and A2780cis cells [9] is recorded as “did not cause similar changes”. Besides, the “RF (IC50 Toledo-cis/IC50 Toledo)” value in the series with Toledo-cis cells [4] is recorded as 17; with Toledo-cis cells [4] (listed as cisplatin) it was “about 17”. For the same compound, the “loss of mitochondrial membrane potential” value in the series with A2780 and A2780cis cells [10] was “much lower influence”.

For `Nc1c(-c2ccccc2)oc2ccccc2c1=O` [Ligand, 3-aminoflavone, reference compound], the half-inhibitory concentration (IC50) was above 100 µM with A2780cis cells [2] (Homo sapiens); above 100 µM with Toledo-cis cells [4] (Homo sapiens); above 100 µM in the series with human lymphocytes [7] (Homo sapiens, Lymphocyte); above 100 µM with A2780 cells [11] (Homo sapiens); above 100 µM in the series with Toledo cells [12] (Homo sapiens).

With `Nc1c(-c2ccccc2)oc2ccccc2c1=O.Nc1c(-c2ccccc2)oc2ccccc2c1=O.[Cl][Pt][Cl]` [TCAP(4), trans-dichlorobis(3-aminoflavone)platinum(II)], the IC50 was 15.1 ± 0.6 µM in the series on A2780cis cells [2]; 12.6 ± 1.2 µM in the series on Toledo-cis cells [4]; 11.9 ± 0.7 µM in the series on human lymphocytes [7]; 6.5 to 15.1 µM in series [13]; 6.5 ± 0.3 µM with A2780 cells [11]; 8.8 ± 0.8 µM with Toledo cells [12]. In addition, in the series on A2780cis cells [2], the “RF (IC50 A2780cis/IC50 A2780)” value is reported as 2.3. Also, the “percentage of Ann-V positive cells” value in the series on A2780 and A2780cis cells [9] is reported as “did not cause similar changes”. The “RF (IC50 Toledo-cis/IC50 Toledo)” value with Toledo-cis cells [4] was determined as 1.4. In the series with human lymphocytes [7], the “times less toxic for normal lymphocytes” value was determined as 60 times. Also, the “loss of mitochondrial membrane potential” value in the series on A2780 and A2780cis cells [10] was “much lower influence”.
